Measured values taken from patent US20120128657A1, “SYNTHETIC MACROCYCLIC COMPOUNDS AND METHODS FOR TREATING CANCER” (priority 2007, published 2012).

Legend:
4T1 breast tumor cells [1] = test: Chamber cell migration assay (Boyden chambers); format: cell-based; conditions: Mus musculus, 10% FBS in lower chamber, 4 h
Description: Chamber Cell Migration Assay: Cell migration was assayed in Boyden chambers [8.0 μm pore size polyethylene terephthalate membrane, FALCON cell culture insert (Becton-Dickinson)]. Cells were trypsinized and counted. 5-10×10^4 cells in serum free medium (300 μl) were added to the upper chamber and 500 μl of appropriate medium with 10% FBS were added to the lower chamber. Transwells were incubated for 4 h at 37° C. Cells on the inside of the transwell inserts were removed with a cotton swab, and cells on the underside of the insert were fixed and stained. Photographs of three random fields were taken and the number of cells counted to calculate the average number of cells that had transmigrated. Results in the form of IC50 values obtained from the chamber migration assay using 4T1 breast tumor cells for compounds 1-6 are presented in Table 1.

[2] = tested on: Bacillus subtilis (ATCC 49343); test: Modified disc diffusion antimicrobial assay; format: cell-based; conditions: ATCC49343, B. subtilis, 50 μg/disk, 6 mm disks, 37° C., 18 hours
Description: Antimicrobial Assays Compounds were tested for antimicrobial activity against Escherichia coli (ATCC 8739) and Bacillus subtilis (ATCC 49343) and for antifungal activity against Candida albicans (ATCC 90027) using a modified disc diffusion assay. Briefly, agar plates seeded with suspensions of bacteria or fungi were prepared by adding 500 μL of a 24 h culture of bacteria to 100 mL of autoclaved Antibiotic Medium 2 (AB2) containing 1% agar and cooled to 55° C., or of fungi to Sabouraud Dextrose Agar (SDA) at 55° C. Seeded liquid agar (10 mL) was transferred immediately to square Petri dishes and allowed to cool for 1 h. Controls used for C. albicans, E. coli and B. subtilis included amphotericin B (25 μg), ampicillin (50 μg) and choloramphenicol (12.5 μg), respectively. Sterile disks (6 mm) containing control antibiotics or one of the macrocycles ([…]) were placed onto the agar and plates were incubated at 37° C. for 18 hours Inhibitory activity was measured by the zones of inhibition.

4T1 breast tumor cells [3] = test: In vitro wound-healing assay; format: cell-based, mouse; conditions: 4T1 cells, medium with 10% FBS, overnight incubation at 37° C.
Description: In vitro Wound-Healing Assay: 4T1 breast tumor cells in medium containing 10% fetal bovine serum (FBS) were seeded into wells of 24-multiwell plates (Becton-Dickinson). After they grew to confluence, wounds were made with sterile pipette tips. Cells were washed with Phosphate Buffered Saline (PBS) and refreshed with medium with or without 10% FBS. After overnight incubation at 37° C., cells were fixed and photographed according to protocols described by Yang, S, and Huang, X.-Y. J. Biol. Chem. 2005, 280, 27130-27137; and Shan, D.; Chen, L.; Njardarson, J. T.; Gaul, C.; Ma, X.; Danishefsky, S. J.; and Huang, X.-Y. Proc. Natl. Acad. Sci. U.S.A. 2005, 102, 3772-3776, both the Yang and Shan references are incorporated herein by reference.

4T1 breast tumor cells [4] = test: Cell proliferation assay; format: cell-based, mouse; conditions: DMEM with 10% FBS, cells counted daily (FIG. 1)
Description: Cell Proliferation Assay: 4T1 breast tumor cells were trypsinized, resuspended in Dulbecco's Modified Eagle Medium (DMEM) with 10% FBS and counted. 5×10^4 cells were plated per well in a 6-well dish and grown in DMEM with 10% FBS. Each day of the assay, one well of each type of cell was trypsinized and the cells were counted.

IC50 (4T1 breast tumor cells [1]; unit given in μM)	SMILES	zone of inhibition at 50 µg/disc [2]	further results
> 500 µM	CC(C)(C)OC(=O)NC(Cc1ccccc1)C(=O)O[C@@H]1C[C@]2(O)C[C@@H](OC(=O)CCCC/C=C\CNC2=O)[C@@H]1O (stereo partly drawn) [Compound 5]	–	–
525 ± 163 µM	O=C1CCCC/C=C\CNC(=O)[C@]2(O)C[C@@H](O)[C@@H](O)[C@@H](C2)O1 [Compound 3]	8.5 mm	–
–	CC1(C)S[C@@H]2[C@H](NC(=O)[C@H](N)c3ccccc3)C(=O)N2[C@H]1C(=O)O [ampicillin, reference compound]	15 mm	–
12 ± 2.9 µM	O=C1CCCC/C=C/CNC(=O)[C@]2(O)C[C@@H](O)[C@@H](O)[C@@H](C2)O1 [Compound 4]	7.5 mm	–
–	CC(C)=CC(=O)O[C@@H]1C[C@]2(O)C[C@@H](OC(=O)CCCC/C=C\CNC2=O)[C@@H]1O [Compound 6]	–	IC50 (4T1 breast tumor cells [1]; unit column prints nM): 0.55 ± 0.189 µM
> 250 µM	O=C1CC/C=C/CNC(=O)[C@]2(O)C[C@@H](O)[C@@H](O)[C@@H](C2)O1 [Compound 2]	–	–
–	O=C1CC/C=C\CNC(=O)[C@]2(O)C[C@@H](O)[C@@H](O)[C@@H](C2)O1 [Compound 1]	9 mm	IC50 (4T1 breast tumor cells [1]; unit column prints nM): 0.077 ± 0.017 µM; closure of the wound (cell migration) (4T1 breast tumor cells [3]): prevented closure of the wound; 4T1 cell proliferation (4T1 breast tumor cells [4]): does not affect 4T1 cell proliferation
